We go through twelve molecules from patent US10947213B1 (Merck Patent GmbH, priority 2015, dated 2021).

Structures are written as SMILES. Structures can show the parent of a compound that is named as a salt. Some results are limits rather than exact numbers.

This assay deals with T1, TLR7/NFKb HEK cells (Homo sapiens, UniProt Q9NYK1).
T1 construct: expressed in transfected cells; host or cells: HEK cells (TLR7/NFKb reporter line)
T1 sequence (Q9NYK1 27-1049): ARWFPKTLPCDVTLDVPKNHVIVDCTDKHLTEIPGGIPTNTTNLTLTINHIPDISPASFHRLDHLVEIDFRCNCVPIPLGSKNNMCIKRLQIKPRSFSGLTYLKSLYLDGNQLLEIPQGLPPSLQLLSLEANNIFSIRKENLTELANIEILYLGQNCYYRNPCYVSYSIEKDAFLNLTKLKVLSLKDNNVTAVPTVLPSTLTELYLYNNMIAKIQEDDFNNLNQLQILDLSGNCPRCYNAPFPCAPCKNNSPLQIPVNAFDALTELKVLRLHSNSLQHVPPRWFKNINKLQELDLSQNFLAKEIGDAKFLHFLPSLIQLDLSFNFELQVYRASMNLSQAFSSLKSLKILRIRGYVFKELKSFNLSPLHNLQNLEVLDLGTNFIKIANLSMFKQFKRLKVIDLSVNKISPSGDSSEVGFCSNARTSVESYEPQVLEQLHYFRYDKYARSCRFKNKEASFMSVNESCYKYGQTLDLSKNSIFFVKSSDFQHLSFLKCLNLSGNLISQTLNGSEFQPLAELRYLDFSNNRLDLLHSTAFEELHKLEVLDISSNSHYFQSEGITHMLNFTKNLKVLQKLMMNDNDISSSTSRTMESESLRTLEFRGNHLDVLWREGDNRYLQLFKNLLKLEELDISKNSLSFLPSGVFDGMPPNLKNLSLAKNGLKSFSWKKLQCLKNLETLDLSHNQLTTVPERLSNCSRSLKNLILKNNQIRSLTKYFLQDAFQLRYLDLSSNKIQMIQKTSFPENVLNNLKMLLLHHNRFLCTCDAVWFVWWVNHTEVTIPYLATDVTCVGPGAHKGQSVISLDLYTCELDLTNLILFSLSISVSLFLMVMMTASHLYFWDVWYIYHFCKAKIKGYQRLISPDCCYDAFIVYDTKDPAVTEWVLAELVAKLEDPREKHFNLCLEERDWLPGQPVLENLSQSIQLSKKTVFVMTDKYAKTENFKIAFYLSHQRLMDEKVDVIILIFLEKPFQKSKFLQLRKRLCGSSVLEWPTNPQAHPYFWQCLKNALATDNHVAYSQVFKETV
Nature of the assay: HEK Cell Assay (TLR7/NFKb reporter, Steady-Glo luciferase readout). Format: cell-based. To be noted: 30 min compound preincubation, then R*48 agonist for 5 hours, read-out: Potency. The method, boiled down: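 Steady-Glo luminescence after 5 h stimulation with R*48 agonist, following 30 min compound preincubation. Assay run in HEK cells carrying a TLR7/NFKb luciferase reporter, plated at 5000 cells/well and grown 24 h at 37° C (10% CO2) before treatment.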
Turning to `CC(C(=O)N[C@@H]1C[C@H](C)CN(c2ccc(C(F)(F)F)c3nccnc23)C1)N1CC(N)C1` (single isomer, unassigned) [Compound 370], the IC50 is < 1000 nM.

As to `C[C@H]1C[C@@H](NC(=O)[C@@H](C)N)CN(c2ccnc3nccnc23)C1` [Compound 26, (R)-2-amino-N-((3R,5S)-5-methyl-1-(pyrido[2,3-b]pyrazin-8-yl)piperidin-3-yl)propanamide], the IC50 lay in the range of 1000 to 10000 nM. As to `C[C@H]1C[C@@H](NC(=O)CN2CCOCC2)CN(c2ccc(C#N)c3nccnc23)C1` [Compound 108, N-[(3R,5S)-1-(8-cyanoquinoxalin-5-yl)-5-methylpiperidin-3-yl]-2-(morpholin-4-yl)acetamide], the IC50 was < 1000 nM. To `O=C(CN1CCOCC1)N[C@H]1C[C@@H](C2CC2)CN(c2ccc(F)c3ncccc23)C1` (racemic) [Compound 367, cis-N-[5-cyclopropyl-1-(8-fluoroquinolin-5-yl)piperidin-3-yl]-2-(morpholin-4-yl)acetamide] belongs > 10000 nM; to `C[C@H]1C[C@@H](N)CN(c2ccc(C#N)c3nsnc23)C1` [Compound 552, 7-((3R,5S)-3-Amino-5-methyl-piperidin-1-yl)-benzo[1,2,5]thiadiazole-4-carbonitrile hydrochloride], < 1000 nM. To `Cc1ncc(N2C[C@@H](C)C[C@@H](NC(=O)[C@@H](O)C3CC3)C2)c2cccnc12` [Compound 559, (S)-2-Cyclopropyl-2-hydroxy-N-[(3R,5S)-5-methyl-1-(8-methyl-[1,7]naphthyridin-5-yl)-piperidin-3-yl]-acetamide] belongs 1000 to 10000 nM; to `CN[C@@H]1C[C@H](C)CN(c2ccnc3nccnc23)C1` [Compound 17, (3R,5S)—N,5-dimethyl-1-(pyrido[2,3-b]pyrazin-8-yl)piperidin-3-amine], > 10000 nM.

As for `C[C@H]1C[C@@H](NC2CCN(C)C2=O)CN(c2ccc(C(F)(F)F)c3nccnc23)C1` (single isomer, unassigned) [Compound 353], the IC50 was < 1000 nM. To `C[C@H]1C[C@@H](NC(=O)CN(C)C)CN(c2ccc(Cl)c3ncccc23)C1` [Compound 264, N-[(3R,5S)-1-(8-chloroquinolin-5-yl)-5-methylpiperidin-3-yl]-2-(dimethylamino)acetamide] belongs < 1000 nM. Turning to `CN1CCC(NC2CC(C(F)(F)F)CN(c3ccc(C#N)c4nccnc34)C2)C1=O` (single isomer, unassigned) [Compound 227], the IC50 was in the range of 1000 to 10000 nM. To `C[C@H]1C[C@@H](NC(=O)C2CC(F)(F)C2)CN(c2ccc(C#N)c3nccnc23)C1` [Compound 235, N-[(3R,5S)-1-(8-cyanoquinoxalin-5-yl)-5-methylpiperidin-3-yl]-3,3-difluorocyclobutane-1-carboxamide] belongs < 1000 nM; to `C[C@@H]1CN(c2ccc(C#N)c3nccnc23)C[C@H](C(=O)NC2CCN(C)CC2)O1` [Compound 468, (2R,6R)-4-(8-cyanoquinoxalin-5-yl)-6-methyl-N-(1-methylpiperidin-4-yl)morpholine-2-carboxamide], < 1000 nM.
